This passage reports IC50 results from patent US7968554B2, “Pyrazolo[3,4-d]pyrimidine derivatives” (Hoffman-La Roche Inc., priority 2007, dated 2011).

Where only a bound is given, the exact number is not on record here.

The target in the assay is T1, c-Raf (Homo sapiens, UniProt P04049).
T1 construct: made in house; host or cells: baculovirus, High-5 (Hi5) insect cells, co-infected with FLAG-vSrc virus
T1 sequence (P04049 whole entry): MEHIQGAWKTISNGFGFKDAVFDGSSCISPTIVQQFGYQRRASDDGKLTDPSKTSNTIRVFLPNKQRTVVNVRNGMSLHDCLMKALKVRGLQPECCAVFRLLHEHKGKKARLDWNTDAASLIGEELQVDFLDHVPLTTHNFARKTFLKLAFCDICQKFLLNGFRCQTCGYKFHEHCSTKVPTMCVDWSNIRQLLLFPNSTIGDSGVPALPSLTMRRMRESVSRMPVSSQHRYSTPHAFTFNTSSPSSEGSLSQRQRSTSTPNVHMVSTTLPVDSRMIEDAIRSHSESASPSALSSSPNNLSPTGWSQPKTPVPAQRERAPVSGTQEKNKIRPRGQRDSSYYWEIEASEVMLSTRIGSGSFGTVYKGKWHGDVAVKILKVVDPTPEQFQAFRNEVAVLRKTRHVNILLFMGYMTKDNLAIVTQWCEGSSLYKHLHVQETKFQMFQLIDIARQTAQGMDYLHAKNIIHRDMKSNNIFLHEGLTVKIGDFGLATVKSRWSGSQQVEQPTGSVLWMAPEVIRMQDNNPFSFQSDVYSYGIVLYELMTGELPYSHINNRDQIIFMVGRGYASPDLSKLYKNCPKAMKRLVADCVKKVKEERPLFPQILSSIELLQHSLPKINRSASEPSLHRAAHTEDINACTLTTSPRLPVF
Nature of the assay: c-Raf HTRF assay with 6H-MEK as substrate (dose response). The class given is biochemical. Particulars: kinase enzyme inhibition, 6H-MEK substrate, read-out: cRaf IC50. The method, then: Kinase Enzyme Inhibition Assay (IC50)
c-Raf HTRF Assay With 6H-MEK as Substrate (Dose Response)
The assay utilizes 6H-MEK as the substrate. Upon c-Raf phosphorylation, phosphorylated 6H-MEK is detected with rabbit anti-phospho-MEK1/2, Eu-labeled anti-rabbit, and APC-labeled anti-6H antibodies.
Reagents and Instruments:
• Enzyme: cloned human c-Raf with EE-tag; phosphorylated (co-expressed with v-src-FLAG in baculovirus Hi5 cells), 0.2 mg/mL (2.74 μM assuming a molecular weight of 73 kD) stored at −15° C. • Substrate: WT full-length 6H-MEK, 4.94 mg/mL (154.4 μM assuming a MW of 32 kD) stored at −15° C. • Antibodies: Rabbit (α-P-(Ser 217/221)-MEK-1/2 Ab (from Cell Signaling, Cat. #9121B, Lot 14); Eu-(α-rabbit IgG (from Wallac, Cat. #AD0083, Lot 318663, 710 ug/mL, 4.4 μM); (α-6H-SureLight-APC (from Martek, Cat. #AD0059H, Lot E012AB01, 3.03 μM). • Reader: Envision from PerkinElmer, HTRF reading mode with 412 mirror • Assay Plate: Matrix all-black polypropylene plates (Cat. #4344) • Others: Weidman 384 polypropylene plates (REMP) for compound plate. Assay Procedure: • (1) Prepare Kinase Assay Buffer (KAB): 50 mM HEPES (HyClone) pH7, 10 mM MgCl2, 1 mM DTT, 0.1 mM […], and 0.3 mg/ml BSA. • (2) Prepare 6H-MEK (150 nM) in KAB. Add 12 μL/well to the assay plate. • (3) Prepare ATP (66 μM) in KAB. • (4) Dilute compounds to 2.4 mM and any positive controls to 480 μM in DMSO. Perform 10-point 3× dilution in DMSO. Withdraw 2.5 μL/well of DMSO solution and add to 27.5 μl/well ATP solution in (3). • (5) Mix, then add 6 μl/well of solution in (4) to the assay plate for a DMSO concentration of 2.1% during MEK phosphorylation. • (6) Prepare c-Raf (12 nM) in KAB. • (7) Add 6 μl/well of KAB in columns 1-2 and 6 μL/well of c-Raf in columns 3-24. • (8) Incubate at 37° C. for 30 min. • (9) Prepare rabbit (α-P-(Ser 217/221 )-MEK-1/2 Ab (1:240 from stock) in AB1: 50 mM HEPES pH7, 0.2 mg/mL BSA, and 43 mM EDTA. • (10) To stop reaction, add 6 μL/well of solution from (9) to the assay plate and incubate at 37° C. for 30 min. • (11) Prepare Eu-(α-rabbit IgG (9 nM) and (α-6H-SureLight-APC (120 nM) in AB2: 50 mM HEPES pH7 and 0.2 mg/mL BSA. • (12) Add 6 μl/well of solution from (11) to the assay plate. • (13) For determining the spectrum cross talk factor, prepare 2 samples following steps (1) to (10). For the blank sample, add 6 μl/well of AB2. For the cross talk factor sample, add 6 μL/well of Eu-anti rabbit IgG (9 nM). • (14) Incubate at room temperature for 1.5 hours. • (15) Read HTRF signals at 615 nm and 665 nm on the Envision. Normalize HTRF signals after spectrum cross-talk correction. Expression and Purification of c-Raf
N terminal EE-tagged c-Raf was expressed in High-5 cells. A five liter culture was co-transfected with virus for EE-c-Raf and FLAG-vSrc at a ratio of 1:2 and harvested after 48 hours. The cell pellet was lysed in TBS containing 5 mM EDTA, 50 mM KF, 20 mM Na pyrophosphate, 20 mM β-glycerolphosphate, 0.5 mM Na VO3, 1% NP-40 (w/v) and Complete Protease Tablets. The lysate was centrifuged at 20,000×g for 1 hour. The supernatant was incubated with 8 mL of anti-EE tag-Protein G Sepharose for 2 hours at 4° C. The resin was then washed with 30 volumes of the above buffer. The c-Raf protein was eluted by incubation with the above buffer containing 100 mg/mL of EE peptide for 1 hour at 4° C. The protein was concentrated using an Amicon Stir Cell with an YM10 membrane. The concentrated protein was dialyzed against TBS containing 1 mM DTT and 30% Glycerol. Protein concentration was determined by the BioRad DC method.
E. coli cells containing the plasmid for the expression of 6H-MEK1 (62-393) were grown in Rich Media and induced with 1 mM IPTG for 24 hours at 22° C. The cell pellet was resuspended in 50 mM potassium phosphate buffer, pH 8.0, 300 mM NaCl, 5 mM MgCl2, 10 mM CHAPS, 2 mM TCEP, and Complete Protease Inhibitor Tablets. Cells were disrupted by sonication. The lysate was cleared by centrifugation at 13,000×g for 45 minutes. […]
On to `Cc1nnc(-c2ccc(C)c(OCc3nn(C)c4ncnc(N)c34)c2)o1` [Example 21, 1-Methyl-3-[2-methyl-5-(5-methyl-[1,3,4]oxadiazol-2-yl)-phenoxymethyl]-1H-pyrazolo[3,4-d]pyrimidin-4-ylamine], for which the IC50 was below 10 µM. For `Cc1ccc(OCc2ccccc2)cc1OCc1nn(C)c2ncnc(N)c12` [Example 15, 3-(5-Benzyloxy-2-methyl-phenoxymethyl)-1-methyl-1H-pyrazolo[3,4-d]pyrimidin-4-ylamine], the half-inhibitory concentration (IC50) was below 10 µM. Then `Cc1noc(-c2ccc(C)c(OCc3nn(C)c4ncnc(N)c34)c2)n1` [Example 13, 4-Amino-1-1-methyl-3-[2-methyl-5-(3-methyl-[1,2,4]oxadiazol-5-yl)-phenoxymethyl]-1H-pyrazolo[3,4-d]pyrimidine], with below 10 µM. Then `Cc1ccc(C(=O)Nc2ccc(Cl)cc2)cc1OCc1nn(C)c2ncnc(N)c12` [Example 17, 3-(4-Amino-1-methyl-1H-pyrazolo[3,4-d]pyrimidin-3-ylmethoxy)-N-(4-chloro-phenyl)-4-methyl-benzamide], with below 10 µM; and `Cc1ccc(OCc2ccc(Cl)cc2)cc1OCc1nn(C)c2ncnc(N)c12` [Example 19, 3-[5-(4-Chloro-benzyloxy)-2-methyl-phenoxymethyl]-1-methyl-1H-pyrazolo[3,4-d]pyrimidin-4-ylamine], with below 10 µM. For `Cc1ccc(NC(=O)c2cccc(Cl)c2)cc1OCc1nn(C)c2ncnc(N)c12` [Example 11, N-[3-(4-Amino-1-methyl-1H-pyrazolo[3,4-d]pyrimidin-3-ylmethoxy)-4-methyl-phenyl]-3-chloro-benzamide], the IC50 was below 10 µM. Take `Cn1nc(COc2cccc(OCc3ccccc3)c2)c2c(N)ncnc21` [Example 7, 3-(3-Benzyloxy-phenoxymethyl)-1-methyl-1H-pyrazolo[3,4-d]pyrimidin-4-ylamine]: the IC50 was below 10 µM. Then `Cc1ccc(NC(=O)c2ccc(NCCO)c(Cl)c2)cc1OCc1nn(C)c2ncnc(N)c12` [Example 9, N-[3-(4-Amino-1-methyl-1H-pyrazolo[3,4-d]pyrimidin-3-ylmethoxy)-4-methyl-phenyl]-3-chloro-4-(2-hydroxy-ethylamino)-benzamide], with below 10 µM.
